Assay results as given in patent publication EP0423240B1, “MODULATION OF VIRUS-HOST CELL INTERACTIONS USING CYCLIC OLIGOSACCHARIDES” (THE TRUSTEES OF THE UNIVERSITY OF PENNSYLVANIA, priority 1988, dated 1990).

Tests used:
[1] = tested on: HIV-1; assay: HIV-1 induced syncytia assay, IIIb infected H9 cells cocultured with Supt-1 target cells; type: cell-based; set-up: key to number of syncytia formed: 4 being multiple syncytia widely distributed; 0 indicating no syncytia observed; s=small; m=medium; L=large syncytia; conditions: for number of syncytia formed: HIV-1, number and size of syncytia
Description: For the assay of HIV-1 fusion, Supt T1 cells were used as target cells. They fuse rapidly when cocultured with HIV-1 (H9/IIIb) producing cell lines. For the assay of HIV-2 mediated cell fusion, H9 cells were used as target cells. They fuse rapidly when cocultured with HIV-2 (CEMROD-2) producing cell lines. HIV infected cells were plated in 96 well plates (10⁴ cells/well in RPMI 1640 + 10% FCS) and incubated with or without dilution of compounds for 30 minutes at 37°C. Target cells are then added 5 x 10⁵/well and the number of syncytia are qualitatively determined after the incubation periods described in the text.
In a series of additional experiments, analysis of HIV-1 induced syncytia was performed by coculturing H9 cells infected with the IIIb isolate with uninfected Supt-1 (a human CD4+ T cell line) cells as targets. […]

[2] = tested on: HIV; assay: Reverse transcriptase assay after prolonged culture (6 days with compound, further 10 days in fresh media); type: cell-based; conditions: then 10 days in fresh media
Description: Figure 6 compares the effects of dextran polysulfate and substituted β-cyclodextrins on HIV infectivity. In (A) degree of syncytia inhibition is shown on the ordinate for each compound added. SUL = 600 µM β-CD-14S, AL = 600 µM unsubstituted β-CD, Pro = 600 µM propoxylated β-CD, 2MET = 300 µM methoxylated β-CD, DS5 = 600 µM dextran sulfate 5,000, DS500 = 600 µM dextran sulfate 500,000. Results for each of 3 time points are shown. In (B) similar results utilizing reverse transcriptase assays are shown. Infectious virus particles were incubated in the presence of sulfated β-cyclodextrin (lane 1), dextran sulfate 5000 (lane 2) or media (lane 3) for 6 days at which time cells were resuspended in fresh media and allowed to incubate a further 10 days before being harvested. Reverse transcriptase activity was assayed as described in Section 6.1, infra. 1/2 dilutions of the compound added are shown from bottom (highest concentration at 2.5 mM) to top (lowest concentration).
Virus infected cells were pelleted by centrifugation and 50 µl of culture suprenatant was collected from each well for assay. Culture supernatant (25 µl) was plated in 96 well round bottomed plates and 50 µl of transcriptase cocktail was added to each well. […] After incubation samples were spotted onto Whatman DEAE-81 paper, washed and analyzed by counting or direct autoradiography. […]

[3] = tested on: HTLV-IIIb cell free virus; assay: Reverse transcriptase assay of HIV infectivity, cell free virus on target cells, 10 day incubation; type: cell-based, HIV-1
Description: Figure 2 illustrates the effects of cyclodextrin and cyclodextrin derivatives on HIV infectivity as determined by reverse transcriptase activity. Samples assayed are (A) untreated control cells, (B) β-cyclodextrin unsubstituted ring, (C) partially sulfated β-cyclodextrin ring, (D) propylated β-cyclodextrin ring, (E) sulfated β-cyclodextrin ring, and (F) methylated β-cyclodextrin ring. Numbers indicate 1/2 dilutions of test compounds with 1 = 2.5 mM concentration of compound.
Virus infected cells were pelleted by centrifugation and 50 µl of culture suprenatant was collected from each well for assay. Culture supernatant (25 µl) was plated in 96 well round bottomed plates and 50 µl of transcriptase cocktail was added to each well. Cocktail is 50 mM Tris-HC1, pH 8.0, 20 mM DTT, 0.6 mM MnC1₂, 60 mM NaC1, 0.05% NP-40, 5 µg/ml dt (oligodeoxythymidilic acid), 10 µg/ml poly A (polyriboadenylic acid), 10 µM dTTP, 1 Ci/mm ³²P dTTP. Plates were then incubated for 60 minutes at 37°C. After incubation samples were spotted onto Whatman DEAE-81 paper, washed and analyzed by counting or direct autoradiography.
The ability of cyclodextrins to inhibit HIV infection was assessed in vitro utilizing reverse transcriptase assays as described Section 6.1.2, supra. HTLV-IIIb cell free virus stocks were inoculated onto target cells in the presence or absence of the synthetic compounds.

[4] = tested on: HIV-1; assay: Viral RNA analysis by dot blot; type: cell-based; conditions: 1 mM
Description: Virus particles were incubated with target cells in the presence or absence of […] of β-CD-14S. At 72 hours post infection, the cells were washed and dot blot assays were performed to determine the presence or absence of viral RNA production. In (A), target cells were infected in the presence of sulfated β-cyclodextrin (lane A), in the absence of cyclodextrins (lane B), or in the presence of unsubstituted β-cyclodextrin (lane C). 1/2 dilutions of cells are from left to right starting with 10⁶ cell/well utilized. In (B), virally infected cells (+) or uninfected cells (-) were assayed for their ability to produce viral RNA by dot blot analysis. CD = infected cells incubated with 1 mM of β-CD-14S. 1/2 dilutions of cells are from top to bottom starting with 10⁶ cell/well.
Virus treated cells were grown in tissue culture and harvested for assay at 72 hrs. post-infection. The cell concentrations were then adjusted to 1 x 10⁶ cells/m1 with phosphate buffered saline and spotted directly onto prewetted gene screen utilizing a dot blot apparatus. The filter was then fixed in 3% NaC1, 10 mM NaH₂PO₄, (pH 7.2) containing 1% gluteraldehyde at 4°C for 1 hr. The fixed blot was then rinsed three times with proteolytic buffer (50mM EDTA, 0.1 M Tris-HC1 (pH 8.0), 20 µg/ml proteinase K) for 30 minutes at 37°C. The filter was air dried until being probed. A Sall-Xho1 probe derived from the pIIIenv1 plasmid (a generous gift of Dr. J. Sodrofsky) and encoding the envelope region of the HXB2, HIV-1 virus was labeled by the random primer method using standard technology and hybridized to the filter as previously described (Weiner et al., 1986, Cell Immunol. 100:197).
To determine if the cyclodextrins were interfering with steps relevant to viral replication, the ability of these compounds to inhibit viral nucleic acid synthesis was determined. Virus particles were incubated with target cells in the presence or absence of 1 mM of β-CD-14S. At 72 hours post-infection, the cells were washed and dot blot assays were performed to determine the presence or absence of viral RNA production. […]

Which “number of syncytia formed” value ([1]; 1.3 mM) does the source give for “beta-cyclodextrin tetradecasulfate [Beta-CD-14S]” here?
The value was 0.

What about the “number of syncytia formed” value ([1]; 2.5 mM) of the same substance?
Its value is 0.

And the “number of syncytia formed” value ([1]; .01 mM)?
The value was 4 L.

What about the “number of syncytia formed” value ([1]; .02 mM) of the same substance?
The value was 4 L.

And the “number of syncytia formed” value ([1]; .04 mM)?
The value was 3 L.

And the “number of syncytia formed” value ([1]; .08 mM)?
Its value is 2m.

What about the “number of syncytia formed” value ([1]; .16 mM) of the same substance?
Its value is 1 s.

What about the “number of syncytia formed” value ([1]; .32 mM) of the same substance?
Its value is 0.

What about the “number of syncytia formed” value ([1]; .63 mM) of the same substance?
The value was 0.

And the “inhibiting syncytia formation of HIV-1” value ([1]; result in words)?
The value was “extremely high antisyncytia activity”.

What about the “anti-viral activity (reverse transcriptase activity)” value [2] of the same substance?
The value was “significant anti-viral activity even after prolonged periods of tissue culture”.

And the “inhibition of viral infectivity (reverse transcriptase activity)” value ([3]; 1/2 dilutions from 2.5 mM, result in words)?
Its value is “extremely effective”.

And the “concentrations at which some reverse transcriptase activity was apparent” value ([3]; dilution 4)?
Its value is ≤ 320 µM.

And the “concentrations at which reverse transcriptase activity was dramatically inhibited” value ([3]; dilution 6)?
Its value is ≥ 80 µM.

And the “ability of infected cells to produce viral RNA” value ([4]; already infected cells incubated with compound)?
Its value is “not inhibited in their ability to produce viral RNA”.

What about the “HIV-1 specific RNA” value ([4]; target cells infected in the presence of compound, 72 hours post-infection) of the same substance?
The value was “little or no HIV-1 specific RNA was detected”.
